ChEMBL document CHEMBL1201862, “PubChem BioAssay data set” (2004)
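96-well plates; 48 h exposure; 5 concentrations. Endpoints by linear interpolation between flanking doses. Not reached: highest tested concentration assigned. GI50 is the concentration that inhibits growth by half.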 The source made the active and inactive calls. Rule as the data show it: active = GI50 up to about 1.1 µM and inactive = higher.

What was measured:
Test in all cases: inhibition of tumour cell growth, NCI panel, 48 h
[1] = test system: SK-MEL-2
[2] = test system: Malme-3M
[3] = test system: SN12C
[4] = test system: KM12
[5] = test system: MDA-MB-231
[6] = test system: NCI-H23
[7] = test system: UACC-62
[8] = test system: Hs-578T
[9] = test system: UO-31
[10] = test system: LOX IMVI
[11] = test system: HOP-92
[12] = test system: SNB-19
[13] = test system: A549
[14] = test system: COLO 205
[15] = test system: CCRF-CEM
[16] = test system: OVCAR-4
[17] = test system: IGROV-1
[18] = test system: OVCAR-8
[19] = test system: CAKI-1
[20] = test system: DU-145

| SMILES | GI50 [1] | GI50 [2] | GI50 [3] | GI50 [4] | GI50 [5] | GI50 [6] | GI50 [7] | GI50 [8] | GI50 [9] | GI50 [10] | GI50 [11] | GI50 [12] | GI50 [13] | GI50 [14] | GI50 [15] | GI50 [16] | GI50 [17] | GI50 [18] | GI50 [19] | GI50 [20] |
| --- | --- | --- | --- | --- | --- | --- | --- | --- | --- | --- | --- | --- | --- | --- | --- | --- | --- | --- | --- | --- |
| Cc1cc(CNC(=O)OCc2ccccc2)c(C)c2c1Oc1ccccc1O2 | < 0.01 µM (active) | 75.9 µM (inactive) | 24.3 µM (inactive) | 43.6 µM (inactive) | 6.67 µM (inactive) | 24.3 µM (inactive) | 26.5 µM (inactive) | 19.7 µM (inactive) | 28.6 µM (inactive) | > 100 µM (inactive) | 1.26 µM (inactive) | 25.5 µM (inactive) | 20.9 µM (inactive) | 50.1 µM (inactive) | > 100 µM (inactive) | 21.3 µM (inactive) | 24.2 µM (inactive) | 17.1 µM (inactive) | 21.1 µM (inactive) | 71 µM (inactive) |
| O=c1n(-c2ccc(Cl)c(Cl)c2)c(=O)n(-c2ccc(Cl)c(Cl)c2)c(=O)n1-c1ccc(Cl)c(Cl)c1 | 2.15 µM (inactive) | 3.3 µM (inactive) | 3.09 µM (inactive) | 2.91 µM (inactive) | 1.8 µM (inactive) | 1.5 µM (inactive) | 4.27 µM (inactive) | 2.96 µM (inactive) | 2.76 µM (inactive) | 2.55 µM (inactive) | 0.0144 µM (active) | 5.01 µM (inactive) | 2.09 µM (inactive) | 0.719 µM (active) | 1.15 µM (inactive) | 3.94 µM (inactive) | 3.21 µM (inactive) | 3.54 µM (inactive) | 3.49 µM (inactive) | 4.01 µM (inactive) |
| O=C1c2ccccc2C(=O)c2c1ccc1c2OCO1 | > 100 µM (inactive) | > 100 µM (inactive) | > 100 µM (inactive) | > 100 µM (inactive) | > 100 µM (inactive) | > 100 µM (inactive) | > 100 µM (inactive) | > 100 µM (inactive) | > 100 µM (inactive) | > 100 µM (inactive) | > 100 µM (inactive) | > 100 µM (inactive) | > 100 µM (inactive) | > 100 µM (inactive) | > 10 µM (inactive) | > 100 µM (inactive) | > 100 µM (inactive) | > 100 µM (inactive) | > 100 µM (inactive) | > 100 µM (inactive) |
